Measured values: patent publication US12024515B2, “Kifunensine derivatives” (University of Kansas, priority 2021, dated 2024)
Numbered stars: 1 amine (or outer) side, 2 acyl side, 3 side chain; on linkers, the order of the positions; unused ones are H or OH. Bridge positions count the residues as written; N and C are the ends. Square brackets hold non-standard residues; d marks the D form. Peptide text beside a SMILES is read from it. I, II: the chains in the order shown. Actinocin(9to1) = Cc1c2oc3c(C)ccc(C(=O)[*:1])c3nc-2c(C(=O)[*:2])c(N)c1=O; NMeV = CN[C@H](C(=O)O)C(C)C; Sar = CNCC(=O)O

Legend:
Raji cells [1] = assay: CD20 expression in Raji cells (flow cytometry of surface CD20, western blotting); assay type: cell-based; settings: for cell surface expression of CD20: 48 hours, flow cytometry, Kif 25 μM, Swain 25 μM, DMJ 1 mM, DIM 1 mM (FIG. 1A, 1C); for effect on Kif mediated CD20 upregulation: with Kif 25 μM, actinomycin D 10 μg/ml, cycloheximide 100 μg/ml, 48 hours (FIG. 2A)
Experimental: (§1) FIGS. 1A-1E relate to kifunensine (“Kif”) induced expression of CD20. Raji cells were incubated with Kif for 48 hours and CD20 levels on the cell surface levels were analyzed by flow cytometry (FIG. 1A) and in whole cell lysate by western blotting (FIG. 1B). Raji cells were preincubated with Kif (25 μM), Swain (25 μM), DMJ (1 mM), and DIM (1 mM) or vehicle for 48 hours, and the cell surface levels of CD20 were analyzed by flow cytometry (FIG. 1C). Cells were incubated with Kif (25 μM) or vehicle for 48 hours and the cell surface levels of CD20 were analyzed by flow cytometry (FIG. 1D). Raji and rituximab resistant cells were incubated with Kif (25 μM) or vehicle for 48 hours and the cell surface levels of CD20 were analyzed by flow cytometry (FIG. 1E). Results are presented as a percentage of MFI of vehicle treated control cells (±SD). Statistical significance was determined with Kruskal-Wallis test, *P<0.033, **P<0.002, ****P<0.001, vs control.
Staining of surface antigens. Cells were treated for 48 hours with the described inhibitors at the indicated concentrations or with DMSO controls. Cells were then harvested, washed twice with cold flow buffer (PBS (GIBCO) containing 0.5% BSA and 0.1% sodium azide (Fisher)), stained for 1 hour with 0.25 μg of anti-CD20 mAb (clone 2H7) conjugated with Super Bright 645 (eBioscience, ThermoFisher Scientific), then washed twice with flow buffer, and finally the cells were incubated with flow buffer containing 2.5 μg/mL 7-aminoactinomycin (7-AAD, eBioscience, ThermoFisher Scientific) for 10 minutes prior to being analyzed using an Attune NxT Flow Cytometer. CD20 expression was assessed in 7-AAD negative cells.

[2] = system: Raji cells and Rituximab resistant Raji 4RH cells; assay: In vivo CD20 expression in subcutaneous Raji and Raji 4RH tumors (Western blot); settings: SCID mice, i.p., 10 mg/kg every second day over 8 days
Experimental: In vivo increase in CD20 expression of Raji cells and Rituximab resistant Raji 4RH cells. A study was performed to determine whether Kif can increase the expression of CD20 on Raji cells and Rituximab resistant Raji 4RH cells that had been subcutaneously inoculated into the flank of six week old SCID mice. After inoculation, tumors were permitted to grow for 10 days prior to treatment initiation. The mice were randomly divided into control and treatment groups. Control group received PBS, while the treatment group received Kif (i.p., 10 mg/kg) every second day over an 8 day period. The mice were then scarified, tumors were harvested, and CD20 expression was assessed by Western blot.

Raji cells [3] = assay: Histone acetylation in Raji cells; assay type: cell-based
[4] = system: rituximab resistant cell lines (Raji 2R, Raji 4RH, RL 4RH); assay: Cell surface CD20 in rituximab resistant cell lines (flow cytometry); assay type: cell-based; settings: 25 μM, 48 hours (FIG. 1E)
Experimental: as §1
(§2) Staining of surface antigens. Cells were treated for 48 hours with the described inhibitors at the indicated concentrations or with DMSO controls. […] CD20 expression was assessed in 7-AAD negative cells.

malignant B cell lines [5] = assay: ADCC assay with anti-CD20 antibody and CD16+ NK-92 effector cells; assay type: cell-based
Experimental: FIGS. 3A-3B illustrate Kif potentiates the activity of anti-CD20 antibodies in vitro. Cells were incubated with Kif (25 μM) or vehicle control (Con) for 48 hours prior to rituximab mediated ADCC (FIG. 3A) or CDC (FIG. 3B). ADCC assays. Target cells were labelled with CellTrace Violet according to the manufacturer's instructions (ThermoFisher Scientific). In brief, 1 million target cells were washed twice with warm PBS, then stained with 5 μM CellTrace Violet in PBS for 20 minutes at 37° C. Then, 5 volume equivalents of complete media were added and the resulting solution was incubated for 10 minutes at 37° C. The cells were pelleted and washed twice with fresh complete media, and the cell suspension was adjusted to 800,000 cells/mL in complete media. 25 μL of the target cell suspension (i.e., 20,000 target cells) were then in added to a 96-well plate. 25 μL of rituximab solutions at 4× the indicated concentrations in complete media or complete media were added to experiment wells and the control wells respectively, and the resulting suspensions were incubated for 30 minutes at 37° C. Subsequently, 50 μL of a 1.6 million CD-16+ NK-92 cells/mL suspension in complete media (E:T 4:1, i.e., 80,000 effector cells) were added to experiment wells and control wells (i.e., no antibody) and the plate was incubated for 4 hours at 37° C. in a fully humidified atmosphere of 5% CO2. Subsequently, 6 uL of 2.5 μg/mL was added to each well and after 10 minutes the plate was analyzed using an Attune NxT Flow Cytometer. Target cell viability was accessed by determining the percentage of CellTrace Violet and 7-AAD positive cells. ADCC was calculated as follows: % ADCC=% 7-AAD positive target cells in experiment well—% 7-AAD positive target cells in control wells.

[6] = system: panel of cells lines representing diffuse large B cell lymphoma, Burkitt lymphoma, and follicular lymphoma; assay: Cell surface CD20 in a panel of B cell lymphoma cell lines (flow cytometry); assay type: cell-based; settings: 25 μM, 48 hours, flow cytometry (FIG. 1D)
Experimental: as §1, §2

[7] = system: patient derived primary CLL samples; assay: CD20 expression in patient derived primary CLL samples; assay type: cell-based
MS4A1 = assay: CD20 mRNA (MS4A1) expression by RT-PCR; assay type: cell-based; settings: Raji cells, Kif 25 μM, 48 hours, RT-PCR (FIG. 2B)
Experimental: FIGS. 2A-2B illustrates that Kif mediates CD20 upregulation occurs upstream of transcription and translation. Cells were incubated with Kif (25 μM), Kif (25 μM) plus actinomycin D (10 μg/ml), Kif (25 μM) plus cycloheximide (100 μg/ml), or vehicle control (Con) for 48 hours and the cell surface levels of CD20 were analyzed by flow cytometry (FIG. 2A). Cells were incubated with Kif (25 μM) or vehicle control (Con) for 48 hours and CD20 mRNA levels were analyzed by RT-PCR (FIG. 2B).

malignant B cell lines [8] = assay: CDC assay with anti-CD20 antibody and pooled human serum; assay type: cell-based
Experimental: FIGS. 3A-3B illustrate Kif potentiates the activity of anti-CD20 antibodies in vitro. Cells were incubated with Kif (25 μM) or vehicle control (Con) for 48 hours prior to rituximab mediated ADCC (FIG. 3A) or CDC (FIG. 3B). CDC assays. 25 μL of the target cell suspension at 2 million cells/mL (i.e., 50,000 target cells) were added to a 96-well plate. 25 μL of antibody solutions at 4× the indicated concentrations in complete media or complete media were added to experiment wells and the control wells respectively, and the resulting suspensions were incubated for 30 minutes at 37° C. Subsequently, 50 μL of a 20% of pooled human serum in complete media were added to experiment wells and control wells (i.e., no antibody) and the plate was incubated for 1 hours at 37° C. in a fully humidified atmosphere of 5% CO2. Subsequently, 6 uL of 2.5 μg/mL was added to each well and after 10 minutes the plate was analyzed using an Attune NxT Flow Cytometer. Target cell viability was accessed by determining the percentage of 7-AAD positive cells. CDC was calculated as follows: % CDC=% 7-AAD positive target cells in experiment well—% 7-AAD positive target cells in control wells.

## OC[C@H]1NC[C@@H](O)[C@@H](O)[C@@H]1O [DMJ, 1-deoxymannojirimycin hydrochlorie]
Raji cells [1]; Raji cells
  cell surface expression of CD20: significantly increase CD20 expression

## Cc1c2oc3c(C)ccc(C(=O)N[C@@H]4C(=O)N[C@H](C(C)C)C(=O)N5CCC[C@H]5C(=O)N(C)CC(=O)N(C)[C@@H](C(C)C)C(=O)O[C@@H]4C)c3nc-2c(C(=O)N[C@@H]2C(=O)N[C@H](C(C)C)C(=O)N3CCC[C@H]3C(=O)N(C)CC(=O)N(C)[C@@H](C(C)C)C(=O)O[C@@H]2C)c(N)c1=O [ACT-D, actinomycin D] (I: T[dV]P[Sar][NMeV] / II: T[dV]P[Sar][NMeV]; ester I:1-I:C, II:1-II:C; linker I:N-II:N via Actinocin(9to1))
Raji cells [1]
  effect on Kif mediated CD20 upregulation: inhibit Kif mediated CD20 upregulation

## OC[C@@H](O)[C@H]1NC[C@@H](O)[C@H]1O [DIM, 1,4-dideoxy-1,4-imino-D-mannitol]
Raji cells [1]; Raji cells
  cell surface expression of CD20: significantly increase CD20 expression

## O=C1N[C@@H]2[C@@H](O)[C@@H](O)[C@H](O)[C@@H](CO)N2C1=O [Kif, kifunensine]
[2]
  side effects: no side effects were observed
[2]; Western blot, Raji and Raji 4RH
  CD20 expression in tumors: increases the expression of CD20
Raji cells [1]; Raji cells
  cell surface expression of CD20: increases cell surface expression of CD20 in Raji cells in a concentration dependent manner
Raji cells [1]; Raji cells, whole cell lysate, 48 hours (FIG. 1B)
  CD20 expression by western blotting: increase CD20 expression was confirmed by western blotting
Raji cells [3]
  histone acetylation: did not significantly alter histone acetylation
[4]
  CD20 expression in rituximab resistant cell lines: significantly increased CD20 expression
Malignant B cell lines [5]; ADCC
  obinutuzumab potency in combination with Kif: potency of obinutuzumab was also increased
Malignant B cell lines [5]; Raji 2R and Raji 4RH
  sensitization of rituximab resistant cell lines to rituximab (ADCC): sensitized to the action of rituximab
Malignant B cell lines [5]; all cell lines tested, Kif 25 μM 48 hours before rituximab mediated ADCC (FIG. 3A)
  rituximab potency in ADCC in combination with Kif: potency of rituximab was increased
[6]
  CD20 upregulation in panel of cell lines: upregulates CD20
[7]
  CD20 expression in primary CLL samples: increases CD20 expression in a dose-dependent and significant manner
MS4A1
  expression of MS4A1: altered the expression of the MS4A1
Malignant B cell lines [8]; Kif treated cells, absence of antibody
  complement mediated killing without antibody: more susceptible to complement mediated killing in the absence of antibody
Malignant B cell lines [8]; cells treated with Kif prior to CDC (FIG. 3B)
  susceptibility to CDC with rituximab and ofatumumab: rendered cells more susceptible
Malignant B cell lines [8]; rituximab resistant cells, data not shown
  sensitization of rituximab resistant cells to CDC: not sensitized to CDC

## O[C@H]1[C@H]2[C@H](O)CCCN2C[C@H]1O [Swain, swainsonine]
Raji cells [1]; Raji cells
  cell surface expression of CD20: significantly increase CD20 expression

## C[C@@H]1C[C@@H]([C@H](O)CC2CC(=O)NC(=O)C2)C(=O)[C@@H](C)C1 [CHX, cycloheximide]
Raji cells [1]
  effect on Kif mediated CD20 upregulation: inhibit Kif mediated CD20 upregulation
